Laboratory results reported in patent US8466284B2, “Some 2-pyrazinone derivatives and their use as inhibitors of neutrophile elastase” (Astra Zeneca AB, priority 2007, dated 2013).

How the values were obtained:
[1] = biological target: T1, Human Neutrophil Elastase (HNE) (Homo sapiens, UniProt P08246); assay: Human Neutrophil Elastase Quenched-FRET Assay; assay type: biochemical; conditions: 1.7 nM HNE, 100 μM MeOSuc-AAPV-AMC, 15 min pre-incubation, 30 min at room temperature; read-out: Inhibition of Human Neutrophil Elastase IC50
T1 construct: Human Neutrophil Elastase (HNE) purified from serum; purchased Calbiochem 324681; host or cells: purified from serum (natural human source, not recombinant)
T1 sequence (P08246 30-247 limits assumed): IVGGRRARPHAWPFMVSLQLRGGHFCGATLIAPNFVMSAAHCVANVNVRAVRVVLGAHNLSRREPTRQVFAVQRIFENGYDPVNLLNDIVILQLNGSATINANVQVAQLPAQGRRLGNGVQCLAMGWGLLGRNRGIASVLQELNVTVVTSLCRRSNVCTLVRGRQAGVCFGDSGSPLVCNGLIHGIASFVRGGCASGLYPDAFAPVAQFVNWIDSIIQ
Protocol: Human Neutrophil Elastase Quenched-FRET Assay
The assay uses Human Neutrophil Elastase (HNE) purified from serum (Calbiochem art. 324681; Ref. Baugh, R. J. et al., 1976, Biochemistry. 15, 836-841). HNE was stored in 50 mM sodium acetate (NaOAc), 200 mM sodium chloride (NaCl), pH 5.5 with added 30% glycerol at −20° C. The protease substrate used was Elastase Substrate V Fluorogenic, MeOSuc-AAPV-AMC (Calbiochem art. 324740; Ref. Castillo, M. J. et al., 1979, Anal. Biochem. 99, 53-64). The substrate was stored in dimethyl sulphoxide (DMSO) at −20° C. The assay additions were as follows: Test compounds and controls were added to black 96-well flat-bottom plates (Greiner 655076), 1 μL in 100% DMSO, followed by 30 μL HNE in assay buffer with 0.01% Triton (trade mark) X-100 detergent. The assay buffer constitution was: 100 mM Tris(hydroxymethyl)aminomethane (TRIS) (pH 7.5) and 500 mM NaCl. The enzyme and the compounds were incubated at room temperature for 15 minutes. Then 30 μl substrate in assay buffer was added. The assay was incubated for 30 minutes at room temperature. The concentrations of HNE enzyme and substrate during the incubation were 1.7 nM and 100 μM, respectively. The assay was then stopped by adding […] stop solution (140 mM acetic acid, 200 mM sodium monochloroacetate, 60 mM sodium acetate, pH 4.3). Fluorescence was measured on a Wallac 1420 Victor 2 instrument at settings: Excitation 380 nm, Emission 460 nm. IC50 values were determined using Xlfit curve fitting using model 205.

[2] = Humidity interaction (Gravimetrical Vapour Sorption); assay type: physicochemical; conditions: 0 to 80% relative humidity (RH) at 25° C.
Protocol: is The gravimetric responses of test samples to changes in humidity were investigated using a TGA 5000 (TA Instruments) Gravimetrical Vapour Sorption (GVS). The relative humidity (RH) was raised in steps of 5% to 90% RH and lowered back to 0% RH in two cycles. Each level of RH was held until the equilibrium condition (sample weight change<0.01 wt % per 10 minutes) was reached. Measurements were normally made at 25° C. Approximately 5 mg of the test sample was placed in the cup and evaluated. The hygroscopicity was calculated as the relative change in weight of the sample between the two conditions 0% RH and 80% RH during the second cycle.

[3] = Thermal behaviour of the solid (DSC / TGA); assay type: physicochemical; conditions: solid state
Protocol: Using standard methods, for example those described in Höhne, G. W. H. et al (1996), Differential Scanning Calorimetry, Springer, Berlin, the calorimetric response of a test sample to increasing temperature was investigated using a TA Instruments Q2000 Modulated Temperature Differential Scanning Calorimeter (MTDSC). Measurements were performed between 15 and 300° C. using a modulation of ±0.50° C. in intervals of 40 seconds and a ramp rate of 5° C. per minute. Approximately 1 to 5 mg of test sample was placed in aluminium cups with lids (no crimping) under a nitrogen atmosphere.
Gravimetric Analysis (TGA)
The gravimetric response of test samples to increasing temperatures was investigated using a Q500 Thermal Gravimetric Analyser (TGA) (TA Instruments). The samples were heated in a flow of nitrogen gas with a heating rate of 10° C./min.
Approximately 1 to 3 mg of the test sample was placed in the cup and heated to approximately 300° C.

SMILES	IC50 [1] [nM]	water uptake (hygroscopicity) [2] [wt %]	thermally stable below (no solvent loss nor other thermal event prior to melting) [3]
Cc1c(-c2ccnn2-c2ccc(Cl)cc2)nc(C(N)=O)c(=O)n1-c1cccc(C(F)(F)F)c1 [Example 2, 6-[1-(4-Chlorophenyl)-1H-pyrazol-5-yl]-5-methyl-3-oxo-4-[3-(trifluoromethyl)phenyl]-3,4-dihydropyrazine-2-carboxamide]	11		
Cc1cc(-c2nc(C(N)=O)c(=O)n(-c3cccc(C(F)(F)F)c3)c2C)n(-c2ccc(C#N)cc2)n1 [Example 4, 6-[1-(4-Cyanophenyl)-3-methyl-1H-pyrazol-5-yl]-5-methyl-3-oxo-4-[3-(trifluoromethyl)phenyl]-3,4-dihydropyrazine-2-carboxamide]	3.5		
Cc1c(-c2ccnn2-c2ccc(Cl)cn2)nc(C(N)=O)c(=O)n1-c1cccc(C(F)(F)F)c1 [Example 3, 6-[1-(5-Chloropyridin-2-yl)-1H-pyrazol-5-yl]-5-methyl-3-oxo-4-[3-(trifluoromethyl)phenyl]-3,4-dihydropyrazine-2-carboxamide]	28		
Cc1c(C2=NC(C)(C)CN2c2ccc(C#N)cc2)nc(C(N)=O)c(=O)n1-c1cccc(C(F)(F)F)c1 [Example 6, 6-(1-(4-Cyanophenyl)-4,4-dimethyl-4,5-dihydro-1H-imidazol-2-yl)-5-methyl-3-oxo-4-(3-(trifluoromethyl)phenyl)-3,4-dihydropyrazine-2-carb oxamide]	1.4		
Cc1c(-c2ccnn2-c2ccc(C#N)cc2)nc(C(N)=O)c(=O)n1-c1cccc(C(F)(F)F)c1 [Example 1 or 1a, 6-[1-(4-Cyanophenyl)-1H-pyrazol-5-yl]-5-methyl-3-oxo-4-[3-(trifluoromethyl)phenyl]-3,4-dihydropyrazine-2-carboxamide]	2.2		
Cc1c(-c2ccnn2-c2ccc(C#N)cc2)nc(C(=O)NC2CC2)c(=O)n1-c1cccc(C#N)c1 [Example 5, 4-(3-Cyanophenyl)-6-[1-(4-cyanophenyl)-1H-pyrazol-5-yl]-N-cyclopropyl-5-methyl-3-oxo-3,4-dihydropyrazine-2-carboxamide]	4.2		
Cc1c(-c2ccnn2-c2ccc(C#N)cc2)nc(C(N)=O)c(=O)n1-c1cccc(C(F)(F)F)c1 [Example 1a, 6-[1-(4-Cyanophenyl)-1H-pyrazol-5-yl]-5-methyl-3-oxo-4-[3-(trifluoromethyl)phenyl]-3,4-dihydropyrazine-2-carboxamide Form A]		< 0.2	below 260 °C
